Laboratory results reported in PubChem BioAssay (NCI).
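1) Cells in 96-well plates. 2) Compound, 48 h, 5 concentrations. 3) Linear interpolation between surrounding doses. 4) Unreached endpoint = highest concentration. TGI: total growth inhibition.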

Columns and labels:
Test in all cases: growth of human tumour cells (NCI), 48 h
786-0 renal = test system: 786-0 renal
A498 renal = test system: A498 renal
A549 NSCLC = test system: A549 NSCLC
ACHN renal = test system: ACHN renal
BT-549 breast = test system: BT-549 breast
CAKI-1 renal = test system: CAKI-1 renal
CCRF-CEM leukemia = test system: CCRF-CEM leukemia
COLO 205 colon = test system: COLO 205 colon
DU-145 prostate = test system: DU-145 prostate
EKVX NSCLC = test system: EKVX NSCLC
HCC-2998 colon = test system: HCC-2998 colon
HCT-116 colon = test system: HCT-116 colon
HCT-15 colon = test system: HCT-15 colon
HL-60(TB) leukemia = test system: HL-60(TB) leukemia
HOP-62 NSCLC = test system: HOP-62 NSCLC
HOP-92 NSCLC = test system: HOP-92 NSCLC
HS 578T breast = test system: HS 578T breast
HT29 colon = test system: HT29 colon
IGROV1 ovarian = test system: IGROV1 ovarian
K-562 leukemia = test system: K-562 leukemia
KM12 colon = test system: KM12 colon
LOX IMVI melanoma = test system: LOX IMVI melanoma
M14 melanoma = test system: M14 melanoma
MALME-3M melanoma = test system: MALME-3M melanoma
MCF7 breast = test system: MCF7 breast
MDA-MB-231 breast = test system: MDA-MB-231 breast
MDA-MB-435 = test system: MDA-MB-435
MDA-N = test system: MDA-N
MOLT-4 leukemia = test system: MOLT-4 leukemia
NCI-H226 lung = test system: NCI-H226 lung
NCI-H23 lung = test system: NCI-H23 lung
NCI-H460 lung = test system: NCI-H460 lung
NCI-H522 lung = test system: NCI-H522 lung
NCI/ADR-RES ovarian = test system: NCI/ADR-RES ovarian
OVCAR-3 ovarian = test system: OVCAR-3 ovarian
OVCAR-4 ovarian = test system: OVCAR-4 ovarian
OVCAR-5 ovarian = test system: OVCAR-5 ovarian
OVCAR-8 ovarian = test system: OVCAR-8 ovarian
PC-3 prostate = test system: PC-3 prostate
RPMI-8226 leukemia = test system: RPMI-8226 leukemia
RXF 393 renal = test system: RXF 393 renal
SF-268 CNS = test system: SF-268 CNS
SF-295 CNS = test system: SF-295 CNS
SF-539 CNS = test system: SF-539 CNS
SK-MEL-2 melanoma = test system: SK-MEL-2 melanoma
SK-MEL-28 melanoma = test system: SK-MEL-28 melanoma
SK-MEL-5 melanoma = test system: SK-MEL-5 melanoma
SK-OV-3 ovarian = test system: SK-OV-3 ovarian
SN12C renal = test system: SN12C renal
SNB-19 CNS = test system: SNB-19 CNS
SNB-75 CNS = test system: SNB-75 CNS
SR leukemia = test system: SR leukemia
SW-620 colon = test system: SW-620 colon
T-47D breast = test system: T-47D breast
TK-10 renal = test system: TK-10 renal
U251 CNS = test system: U251 CNS
UACC-257 melanoma = test system: UACC-257 melanoma
UACC-62 melanoma = test system: UACC-62 melanoma
UO-31 renal = test system: UO-31 renal
DLD-1 colon = test system: DLD-1 colon
DMS 114 small cell lung = test system: DMS 114 small cell lung
DMS 273 small cell lung = test system: DMS 273 small cell lung
HOP-18 NSCLC = test system: HOP-18 NSCLC
KM20L2 colon = test system: KM20L2 colon
LXFL 529 NSCLC = test system: LXFL 529 NSCLC
M19-MEL melanoma = test system: M19-MEL melanoma
SNB-78 CNS = test system: SNB-78 CNS

Measured: TGI

C[N+]12CCCCC1C(CN1C(=O)c3ccccc3C1=O)CCC2 (configuration not stated)
not listed: DLD-1 colon | DMS 114 small cell lung | DMS 273 small cell lung | HOP-18 NSCLC | KM20L2 colon | LXFL 529 NSCLC | M19-MEL melanoma | SNB-78 CNS
> 100 µM: all other assays above

Cc1ccccc1NC(=O)CSc1nnc(Cc2ccccc2)o1
not listed: A498 renal | BT-549 breast | CAKI-1 renal | DU-145 prostate | EKVX NSCLC | HL-60(TB) leukemia | HOP-92 NSCLC | HS 578T breast | MCF7 breast | MDA-MB-231 breast | MDA-MB-435 | MDA-N | NCI/ADR-RES ovarian | PC-3 prostate | SNB-19 CNS | SR leukemia | SW-620 colon | T-47D breast
> 100 µM: all other assays above

CCSC(=O)C1(C)OC2CCCCC2C1=O (configuration not stated)
not listed: BT-549 breast | DU-145 prostate | EKVX NSCLC | HOP-92 NSCLC | HS 578T breast | HT29 colon | LOX IMVI melanoma | MCF7 breast | MDA-MB-231 breast | MDA-MB-435 | MDA-N | NCI-H23 lung | NCI/ADR-RES ovarian | OVCAR-3 ovarian | OVCAR-5 ovarian | PC-3 prostate | SF-295 CNS | T-47D breast
> 100 µM: all other assays above
